Data published in paper PMC11648915, “Identification and development of TRPM4 antagonists to counteract neuronal excitotoxicity” (iScience, 2024).
Several values for one entry are separate records, joined by “and”; a condition that tells them apart may be missing. Identical values can stand only once. Like-named read-outs stand apart in the source and are kept apart here.

Tests used:
human TRPM4 = human TRPM4 (Homo sapiens, UniProt Q8TD43); experiment: QPatch automated patch clamp on TRPM4-expressing HEK293 cells; format: cell-based; details: hsTRPM4-expressing HEK293 cells; for EC50: read-out: TRPM4 EC50 (potentiator activity)
Experimental: QPatchHTX, an automated electrophysiology platform, was used in single hole mode. One day before use human TRPM4- or TRPM5-expressing HEK293 cells were seeded in a T75 flask at a density of 53k cells per cm^2 and at passages < 23. […] The extracellular solution was (in mM): CaCl2 (7), MgCl2 (2), KCl (5), HEPES (10), NaCl (70), NMDG (70); pH 7.4 with NaOH. The intracellular solution was (in mM): HEPES (10), NMDG (100), NaCl (50), EGTA (20), MgCl2 (1), CaCl2 (21); pH 7.2 with HCl. […] This protocol was repeated every 7 seconds. […] FFA was used as reference compound and applied cumulatively with each concentration incubating at a minimum of 20 voltage protocol runs (140 seconds) with the current after addition of FFA being calculated as full block. […] Each compound was measured at least 3 time independently.

human TRPM5 = biological target: T1, human TRPM5 (Homo sapiens, UniProt Q9NZQ8); experiment: QPatch automated patch clamp on TRPM5-expressing HEK293 cells; format: cell-based; details: hsTRPM5-expressing HEK293 cells
T1 sequence (Q9NZQ8 1-1165): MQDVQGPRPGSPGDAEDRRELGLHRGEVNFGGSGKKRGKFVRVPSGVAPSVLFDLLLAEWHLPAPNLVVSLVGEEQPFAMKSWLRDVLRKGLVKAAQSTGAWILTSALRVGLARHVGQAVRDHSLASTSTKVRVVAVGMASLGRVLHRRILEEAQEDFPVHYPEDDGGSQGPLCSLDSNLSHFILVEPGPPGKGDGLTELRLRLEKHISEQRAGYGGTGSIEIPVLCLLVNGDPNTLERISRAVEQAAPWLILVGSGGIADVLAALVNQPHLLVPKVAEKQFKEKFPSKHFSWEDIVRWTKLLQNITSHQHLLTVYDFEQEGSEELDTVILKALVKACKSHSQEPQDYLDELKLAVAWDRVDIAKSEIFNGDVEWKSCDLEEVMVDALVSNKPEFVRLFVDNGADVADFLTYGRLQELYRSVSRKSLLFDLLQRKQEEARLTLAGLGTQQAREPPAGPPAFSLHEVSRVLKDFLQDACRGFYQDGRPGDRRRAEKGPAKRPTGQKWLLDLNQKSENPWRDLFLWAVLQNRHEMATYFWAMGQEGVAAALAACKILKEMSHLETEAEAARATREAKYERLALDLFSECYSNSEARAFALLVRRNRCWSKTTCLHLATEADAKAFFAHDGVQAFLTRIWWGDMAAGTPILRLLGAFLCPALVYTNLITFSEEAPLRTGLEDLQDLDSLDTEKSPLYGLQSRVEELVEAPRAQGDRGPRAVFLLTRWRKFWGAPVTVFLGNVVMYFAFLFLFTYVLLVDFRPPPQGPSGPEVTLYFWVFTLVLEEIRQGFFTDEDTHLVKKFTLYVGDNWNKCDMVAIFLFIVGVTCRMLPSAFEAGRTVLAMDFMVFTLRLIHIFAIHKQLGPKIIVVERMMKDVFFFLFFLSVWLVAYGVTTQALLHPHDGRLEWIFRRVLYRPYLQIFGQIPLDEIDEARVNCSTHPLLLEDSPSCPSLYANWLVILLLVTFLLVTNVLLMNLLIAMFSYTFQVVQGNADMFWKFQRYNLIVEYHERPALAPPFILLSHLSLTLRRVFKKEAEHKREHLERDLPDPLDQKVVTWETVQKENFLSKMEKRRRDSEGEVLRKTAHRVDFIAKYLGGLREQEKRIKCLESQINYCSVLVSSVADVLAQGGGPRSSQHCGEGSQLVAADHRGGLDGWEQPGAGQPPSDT
Excerpt: The counter screening phase involved the inclusion of hsTRPM5-expressing HEK293 cells, as closest homologue, and the parental HEK293 cell line to evaluate selectivity. […] Based on categorization of biological activity, mass spectrometry quality control, and aspects of medicinal chemistry, we prioritized 144 selective hsTRPM4 compounds. These compounds were then subjected to automated patch clamp electrophysiology measurements (QPatch[58]) to evaluate their activity profiles and IC50 values (Figures 1A, S1, and S2).
QPatchHTX, an automated electrophysiology platform, was used in single hole mode. One day before use human TRPM4- or TRPM5-expressing HEK293 cells were seeded in a T75 flask at a density of 53k cells per cm^2 and at passages < 23. For QPatch assays, cells were harvested and re-suspended in SFM (Gibco, 11686029). The extracellular solution was (in mM): CaCl2 (7), MgCl2 (2), KCl (5), HEPES (10), NaCl (70), NMDG (70); pH 7.4 with NaOH. The intracellular solution was (in mM): HEPES (10), NMDG (100), NaCl (50), EGTA (20), MgCl2 (1), CaCl2 (21); pH 7.2 with HCl. After break-in, channels were consistently open and current through the channels could be observed at a voltage ramp from –100 mV to +100 mV over 500 ms. This protocol was repeated every 7 seconds. After saline and vehicle application, the channel was desensitized and residual current was used as baseline. FFA was used as reference compound and applied cumulatively with each concentration incubating at a minimum of 20 voltage protocol runs (140 seconds) with the current after addition of FFA being calculated as full block. […] Each compound was measured at least 3 time independently.

[1] = In vivo pharmacokinetics after single i.p. or i.v. dose; details: female, C57BL/6J, mouse
Experimental: Next, to assess in vivo availability of the Series 1–3 compounds, we evaluated drug metabolism and pharmacokinetics (DMPK). We measured compound concentrations in plasma, heart, and brain at several time points after intraperitoneal (i.p.) or intravenous (i.v.) single-dose injections.
Half-life and bioavailability were calculated by noncompartmental analysis using the R package PK[84] (v1.3-6).

Sequence of human TRPM4 (Q8TD43 whole entry): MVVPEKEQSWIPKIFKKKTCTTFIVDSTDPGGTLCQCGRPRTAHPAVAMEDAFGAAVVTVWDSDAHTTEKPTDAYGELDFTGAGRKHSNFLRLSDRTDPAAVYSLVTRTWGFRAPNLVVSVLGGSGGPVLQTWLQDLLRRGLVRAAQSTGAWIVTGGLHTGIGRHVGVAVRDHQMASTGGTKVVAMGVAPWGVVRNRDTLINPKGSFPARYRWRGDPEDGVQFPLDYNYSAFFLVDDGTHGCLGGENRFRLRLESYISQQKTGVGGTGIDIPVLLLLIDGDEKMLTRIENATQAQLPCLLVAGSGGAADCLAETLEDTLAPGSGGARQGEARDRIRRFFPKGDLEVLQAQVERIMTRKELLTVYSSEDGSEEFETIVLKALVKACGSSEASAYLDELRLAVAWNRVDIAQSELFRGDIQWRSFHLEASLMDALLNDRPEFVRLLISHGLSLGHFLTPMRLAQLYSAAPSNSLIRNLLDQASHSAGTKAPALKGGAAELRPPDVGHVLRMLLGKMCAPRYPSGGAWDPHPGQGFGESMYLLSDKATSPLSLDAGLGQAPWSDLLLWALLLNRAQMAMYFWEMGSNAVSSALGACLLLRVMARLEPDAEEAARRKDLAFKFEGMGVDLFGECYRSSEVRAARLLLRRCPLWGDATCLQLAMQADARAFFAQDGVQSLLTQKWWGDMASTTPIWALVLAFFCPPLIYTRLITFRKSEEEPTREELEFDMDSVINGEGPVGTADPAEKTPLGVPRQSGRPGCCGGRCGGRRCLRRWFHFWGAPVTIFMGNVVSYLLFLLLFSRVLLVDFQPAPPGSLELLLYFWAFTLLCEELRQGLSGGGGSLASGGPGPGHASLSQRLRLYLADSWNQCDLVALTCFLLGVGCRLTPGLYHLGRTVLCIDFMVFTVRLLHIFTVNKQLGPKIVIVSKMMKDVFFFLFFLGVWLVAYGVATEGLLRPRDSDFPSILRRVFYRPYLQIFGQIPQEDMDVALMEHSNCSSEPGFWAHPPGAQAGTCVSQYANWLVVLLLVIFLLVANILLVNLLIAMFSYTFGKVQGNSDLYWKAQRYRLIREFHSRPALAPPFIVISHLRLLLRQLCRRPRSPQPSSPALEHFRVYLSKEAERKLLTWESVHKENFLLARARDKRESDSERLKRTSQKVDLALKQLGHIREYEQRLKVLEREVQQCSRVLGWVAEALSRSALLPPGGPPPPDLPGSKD

SMILES: c1ccc(-c2ccccc2NCc2nc3ccccc3o2)cc1 [CMP009]
- IC50 (human TRPM4): 550 nM

SMILES: O=c1cc(NC2CCCCCC2)nc2ccc(Cl)cn12 [CMP111]
- IC50 (human TRPM4): 170 nM and 110 nM

SMILES: O=C(O)c1cc(Br)ccc1NS(=O)(=O)c1ccc(Cl)cc1 [CMP116]
- IC50 (human TRPM5): > 30000 nM
- IC50 (human TRPM4): 1870 nM

SMILES: c1ccc(CSCc2cn3ccsc3n2)cc1 [CMP133]
- IC50 (human TRPM4): 280 nM

SMILES: Cc1noc(-c2csc(S(=O)(=O)Nc3ccccc3C(F)(F)F)c2)c1C [CMP157]
- half-life ([1]; brain, ip, read-out: Brain half-life (converted)): 3.9 h
- half-life ([1]; brain, iv, read-out: Brain half-life (converted)): 4.2 h
- half-life ([1]; heart, ip, read-out: Heart half-life (converted)): 3.3 h
- half-life ([1]; heart, iv, read-out: Heart half-life (converted)): 3.5 h
- half-life ([1]; plasma, ip, read-out: Plasma half-life (converted)): 2.9 h
- half-life ([1]; plasma, iv, read-out: Plasma half-life (converted)): 2.8 h
- IC50 (human TRPM4): 360 nM

SMILES: Nc1nnc(Cc2cccc(Br)c2)s1 [CMP225]
- EC50 (human TRPM4): 1340 nM

SMILES: Oc1ccccc1NCc1nc2ccccc2o1 [CMP311]
- EC50 (human TRPM4): 3240 nM

SMILES: COc1ccccc1-c1ccccc1NCc1nc2ccccc2o1 [CMP320]
- IC50 (human TRPM4): 820 nM
